Key:
SHRSP rats = assay: Cortical injury following MCAO in SHRSP rats; assay type: in vivo, rat; settings: for Cortical Injury Volume / Cortical Injury Volume (% injury): ± S.E.M., n = 10
Procedure: Rectal temperature is maintained at 37.0±0.50° C. throughout the surgical procedure using a heating lamp.

[1] = test system: spinal cord organotypic cultures; assay: ALS model: ChAT activity of spinal cord organotypic cultures with THA; assay type: cell-based, rat
Procedure: Organotypic cultures were prepared from lumbar spinal cord of 8 day old rats, as described by Rothstein et al., J. Neurochem., Vol. 65, No. 2 (1995), and Rothstein et al., Proc. Natl. Acad. Sci. USA, Vol. 90, pp. 6591-6595 (July 1993). In brief, lumbar spinal cords were removed and sliced into […]-thick-dorsal-ventral sections, and five slices were placed on Millipore CM semipermeable 30-mm-diameter membrane inserts. The inserts were placed on 1 ml of culture medium in 35-mm-diameter culture wells. Culture medium consisted of 50% minimal essential medium and phosphate-free HEPES (25 mM), 25% heat-inactivated horse serum, and 25 Hanks' balanced salt solution (GIBCO) supplemented with D-glucose (25.6 mg/ml) and glutamine (2 mM), at a final pH of 7.2. Antibiotic and antifungal agents were not used. Cultures were incubated at 37° C. in 5% CO2 containing humidified environment (Forma Scientific). Culture medium, along with any added pharmacological agents, was changed twice weekly.
Drugs were incubated for an additional 13 to 20 days with the 100 μM THA. At the end of this period, cultures were collected assayed for ChAT activity as described below.
To determine choline acetyltransferase (CHAT) activity, the spinal cord tissues in each dish (five slices) were pooled and frozen (-75° C.) until assay. CHAT activity was measured radiometrically by described methods using [^3 H]acetyl-CoA (Amersham; Fonnum, 1975). Protein content of tissue homogenate was determined by a Coomassi Protein Assay kit (Pierce, Rockford, Ill.).

extracellular glutamate = assay: Stroke-induced rise in brain glutamate levels (microdialysis); assay type: in vivo, Sprague Dawley rats; settings: 100 mg/kg IP then 20 mg/kg/hr IV
Sprague-Dawley rats = assay: Dynorphin-induced spinal cord injury; assay type: in vivo, rat
Procedure: Dynorphin-induced spinal cord injury was performed according to Long et al., JPET, Vol. 269, No. 1, pp. 358-366 (1993). In brief, spinal subarachnoid injections were delivered using 30-gauge needles inserted between the L4-L5 vertebrae of male Sprague-Dawley rats (300-350 g). The rats were anesthetized with halothane and dorsal midline incisions were made immediately rostral to the pelvic girdle. By using the vertebral processes as guides, the needle was advanced to pass into the subarachnoid space surrounding the cauda equina. Correct needle placement was verified by CSF flow from the needle after its insertion. […] After injections, the incisions were treated with the topical antibacterial furazolidone and closed with wound clips. Rapid recovery from the halothane anesthesia enabled neurological evaluations to be made within 5 minutes of injections.
Neurological function was evaluated using a 5-point ordinal scale, with scores being assigned as follows: 4=normal motor function; 3=mild paraparesis, with the ability to support weight and walk with impairment; 2=paraparesis, with the ability to make walking movements without fully supporting weight; 1=severe paraparesis, in which rats could make limited hind limb movement, but not walking movement; and 0=flaccid paralysis, with complete absence of any hind limb movement. Neurological evaluations were made 24 hours after dynorphin A injection.
Differences in the neurological scores among treatment groups were determined by means of the Mann-Whitney U test or the Kruskal-Wallis test.

sciatic nerve = assay: Myelin formation following sciatic nerve cryolesion; assay type: in vivo, mouse
Procedure: Cryolesion of the mouse sciatic nerve was performed according to Koenig et al. , Science, Vol. 268, pp. 1500-1503 (June 1995). In brief, each mouse was anesthetized and its sciatic nerve was exposed in the upper thigh and cryolesioned using a copper cryode (diameter=0.5 mm) that was dipped in liquid nitrogen and repeatedly applied to the upper part of the nerve. The extent of the lesion was approximately 1 mm.
Both right and left sciatic nerves of each mouse were lesioned; right-side nerves were treated with silicone implant strips containing vehicle alone while left-side nerves were treated with silicone implants containing 2-(phosphonomethyl)pentanedioic acid. Fifteen days after surgery, the mice were sacrificed and their sciatic nerve segments were collected and processed for light microscopy and TEM analysis. Randomly chosen fields 2-3 mm distal to the lesion were qualitatively analyzed by light microscopy using 1-micrometer-thick toluidine blue stained cross sections and photographic images were captured.

mice = assay: In vivo toxicity of NAALADase inhibitors (5-day survival); settings: 1 to 500 mg/kg
From the text: The mice were subsequently observed two times per day for 5 consecutive days. The survival rate at each dose level is provided below in TABLE II.

Dunning G tumors = assay: In vivo Dunning G tumor model, subcutaneous Compound 3; set-up: species or system male Copenhagen syngenic rats
Procedure: Male Copenhagen syngenic rats, age 8 to 10 weeks, were injected in both flanks with 10^7 Dunning G cells. […] Controls received 50 mM HEPES s.c. daily. Tumors were measured twice a week.
Response to treatment was monitored in two ways. First, mean tumor volume for each group was presented as tumor:control ratio (% T/C) and these values were compared at one point in time. Second, tumor volume versus time was monitored.

dopaminergic neurons = assay: Parkinson's Disease model: MPTP lesioned mice; assay type: in vivo, CD1 mice; settings: 10 mg/kg, p<0.001
Procedure: To examine the effect of NAALADase inhibitors on Parkinson's Disease in vivo, MPTP lesioned mice were treated with 2-(phosphonomethyl)pentanedioicacid or a vehicle.
MPTP lesioning of dopaminergic neurons in mice was used as an animal model of Parkinson's Disease, as described by Steiner, Proc. Natl. Acad. Sci., Vol. 94, pp. 2019-2024 (March 1997). In brief, four week old male CD1 white mice were dosed IP with 30 mg/kg of MPTP for 5 days. […] At 18 days following MPTP treatment, the mice were sacrificed and their brains were removed and sectioned. Immunostaining was performed on saggital and coronal brain sections using anti-tyrosine hydroxylase (TH) antibodies to quantitate survival and recovery of dopaminergic neurons.

[2] = 10 mg/kg then 2 mg/kg/hr for 1 hour
[3] = 100 mg/kg then 20 mg/kg/hr for one hour

## O=C(O)CCC(CP(=O)(O)O)C(=O)O (stereo not drawn) [Compound 3, 2-(phosphonomethyl)pentanedioic acid]
SHRSP rats; [2]
  Cortical Protection: 27 % protection
  Cortical Injury Volume: 135.00 ± 32.18 mm^3
  Cortical Injury Volume (% injury): 29.14 ± 7.68 % injury
SHRSP rats; [3]
  Cortical Protection: 65 % protection
  Cortical Injury Volume: 65.23 ± 32.18 mm^3
  Cortical Injury Volume (% injury): 13.98 ± 6.64 % injury
[1]; 1 nM to 10 μM, THA 100 μM, 14 days
  protection against THA-induced toxicity (in words): dose-dependent protection against THA-induced toxicity with maximal effects at 1 μM
[1]; 100 nM - 10 μM with THA
  protection from THA toxicity (in words): significantly protected the cultures from THA toxicity
[1]; 2-(phosphonomethyl)pentanedioic acid alone
  ChAT Activity: 108 ± 18.4 % of Control
[1]; with THA
  ChAT Activity: 121 ± 18.8 % of Control
Extracellular glutamate; p<0.01
  stroke-induced glutamate changes, parietal cortex (in words): completely prevented concurrent glutamate changes in the parietal cortex
Extracellular glutamate; p<0.05
  stroke-induced extracellular glutamate increase, striatum (in words): significantly attenuated stroke-induced extracellular glutamate increases in the striatum
Extracellular glutamate; vs vehicle
  glutamate, frontal cortex (in words): no subsequent difference between the vehicle and 2-(phosphonomethyl)pentanedioic acid treated groups
Sprague-Dawley rats; 4 μmoles with dynorphin A, 24 hours, p<0.05 vs vehicle
  motor scores (in words): significant improvement in motor scores
Sprague-Dawley rats; 24 hours post-injection, 15 rats, vehicle 14%, p<0.05
  rats ambulatory: 73%
Sprague-Dawley rats; rat, in vivo
  protection against dynorphin-induced spinal cord injury (in words): provides effective protection against dynorphin-induced spinal cord injury
Sciatic nerve; ave. + SEM, vehicle 13.77 ± 0.09, p < 0.005
  # of myelinated lamellae: 16.53 ± 0.65
Sciatic nerve; p < 0.005
  % increase of myelinated lamellae over vehicle: 20%
Sciatic nerve; silicone implant, approx. 2.5 μg/day, 15 days
  ratio of # of myelinated axons (drug/vehicle): 1.5
Sciatic nerve; vs vehicle, 3 mm distal to cryolesion
  increase in number of myelinated axons: 1.5 fold
Sciatic nerve; vs vehicle, 3 mm distal to cryolesion, p<0.005
  increase in myelin thickness: 20%
mice
  toxicological effect (in words): non-toxic to mice
Dunning G tumors; 1 mg/kg s.c.
  effect on tumor growth (in words): no effect on tumor growth
Dunning G tumors; 3 mg/kg s.c.
  effect on tumor growth (in words): no effect on tumor growth
Dunning G tumors; 10 mg/kg s.c., p=0.03
  tumor size, % of controls: 38 % of controls
Dunning G tumors; 30 mg/kg s.c.
  tumor size, % of controls: 22 % of controls
Dopaminergic neurons
  recovery of TH-stained dopaminergic neurons (in words): significant recovery of TH-stained dopaminergic neurons
